Test results published in ChEMBL document CHEMBL1208703, “Structure-activity relationships and in vivo activity of (1H-pyrazol-4-yl)acetamide antagonists of the P2X(7) receptor” (Bioorg Med Chem Lett, 2010).
Activity calls are given as the source filed them. The calls are words filed in the database; no cut-off is given here.

Experiments:
P2X purinoceptor 7 [1] = target: T1, P2X purinoceptor 7 (Homo sapiens, UniProt Q99572); experiment: Antagonist activity at human P2X7 receptor ethidium bromide release assay; type: functional
T1 sequence (Q99572 whole entry): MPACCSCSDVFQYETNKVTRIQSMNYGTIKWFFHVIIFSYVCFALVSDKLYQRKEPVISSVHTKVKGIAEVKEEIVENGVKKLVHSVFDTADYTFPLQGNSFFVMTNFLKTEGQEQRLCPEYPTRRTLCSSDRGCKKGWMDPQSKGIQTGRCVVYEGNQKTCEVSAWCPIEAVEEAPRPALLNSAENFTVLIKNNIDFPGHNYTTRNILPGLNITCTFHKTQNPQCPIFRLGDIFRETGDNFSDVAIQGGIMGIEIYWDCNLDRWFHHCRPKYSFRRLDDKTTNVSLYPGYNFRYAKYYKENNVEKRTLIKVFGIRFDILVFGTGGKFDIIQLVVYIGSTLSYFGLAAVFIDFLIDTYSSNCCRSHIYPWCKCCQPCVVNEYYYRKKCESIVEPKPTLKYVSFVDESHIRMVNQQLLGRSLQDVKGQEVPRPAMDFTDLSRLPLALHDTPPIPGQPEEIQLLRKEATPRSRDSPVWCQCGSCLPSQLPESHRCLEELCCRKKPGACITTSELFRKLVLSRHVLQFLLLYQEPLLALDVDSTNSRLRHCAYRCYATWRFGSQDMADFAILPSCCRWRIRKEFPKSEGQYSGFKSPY

P2X purinoceptor 7 [2] = target: T2, P2X purinoceptor 7 (Rattus norvegicus, UniProt Q64663); experiment: Antagonist activity at rat P2X7 receptor ethidium bromide release assay; type: functional
T2 sequence (Q64663 whole entry): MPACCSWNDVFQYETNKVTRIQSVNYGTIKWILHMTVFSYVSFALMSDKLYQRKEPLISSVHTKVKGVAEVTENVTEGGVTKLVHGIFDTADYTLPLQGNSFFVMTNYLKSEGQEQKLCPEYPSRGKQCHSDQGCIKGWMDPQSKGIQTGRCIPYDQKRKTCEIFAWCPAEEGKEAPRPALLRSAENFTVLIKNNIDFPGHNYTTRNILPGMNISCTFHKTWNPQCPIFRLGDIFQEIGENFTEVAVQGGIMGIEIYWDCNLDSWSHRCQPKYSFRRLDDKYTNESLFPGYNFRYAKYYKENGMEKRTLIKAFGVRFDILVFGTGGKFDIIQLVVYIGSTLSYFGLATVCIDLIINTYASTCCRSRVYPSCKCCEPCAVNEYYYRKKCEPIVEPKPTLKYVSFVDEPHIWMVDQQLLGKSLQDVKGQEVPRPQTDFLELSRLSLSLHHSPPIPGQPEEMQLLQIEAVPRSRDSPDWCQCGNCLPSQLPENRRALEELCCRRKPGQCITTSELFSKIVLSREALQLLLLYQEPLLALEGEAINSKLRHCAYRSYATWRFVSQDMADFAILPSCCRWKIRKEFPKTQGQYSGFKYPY

[3] = Blood clearance in rat at 1 mg/kg, iv; type: ADME, organism-based; parameters: dose 1 mg/kg, route intravenous; settings: whole blood
[4] = Volume of distribution at steady state in rat at 1 mg/kg, iv; type: ADME, organism-based; parameters: dose 1 mg/kg, route intravenous; settings: in vivo, read-out: Vdss
[5] = Excretion half life in rat at 1 mg/kg, iv; type: ADME, organism-based; parameters: dose 1 mg/kg, route intravenous; settings: in vivo, read-out: beta t1/2 (converted)
[6] = Oral bioavailability in rat at 3 mg/kg; type: ADME, organism-based; settings: in vivo, read-out: Activity
Rattus norvegicus [7] = experiment: Antihyperalgesic activity against complete Freund's adjuvant-induced hypersensitivity in po dosed rat inflammatory pain model after 1.5 hrs; type: functional
Rattus norvegicus [8] = experiment: Antihyperalgesic activity against complete Freund's adjuvant-induced hypersensitivity in rat inflammatory pain model at 10 mg/kg, po after 1.5 hrs; type: functional, organism-based; parameters: dose 10 mg/kg
Brain = experiment: Drug level in rat brain at 10 mg/kg, po; type: ADME, organism-based; parameters: dose 10 mg/kg, route oral; settings: in vivo, read-out: Drug uptake
Blood = experiment: Drug level in rat blood at 10 mg/kg, po; type: ADME, organism-based; parameters: dose 10 mg/kg, route oral; settings: in vivo, read-out: Drug uptake
Rattus norvegicus [9] = experiment: Reversal of complete Freund's adjuvant-induced hypersensitivity in rat chronic knee joint pain model at 5-50 mg/kg, po administered 13 days after complete Freund's adjuvant challenge bid for 4 days measured on day 14; type: functional, organism-based
Rattus norvegicus [10] = experiment: Reversal of complete Freund's adjuvant-induced hypersensitivity in rat chronic knee joint pain model at 5-50 mg/kg, po administered 13 days after complete Freund's adjuvant challenge bid for 4 days measured on day 15; type: functional, organism-based

Compound | IC50 (P2X purinoceptor 7 [1]) | further results
Cc1n[nH]c(C)c1CC(=O)NCc1ccc(Cl)cc1Cl | 7.94 nM | IC50 (P2X purinoceptor 7 [2]): 79.4 nM; clearance [3]: 9 mL/min/kg; Vd [4]: 1 L/kg; half-life [5]: 1.7 h; bioavailability [6]: 100%; ED50 (Rattus norvegicus [7]): 2.5 mg/kg; Activity (Rattus norvegicus [8]): Active; concentration (Brain): 4.9 µM; concentration (Blood): 20.9 µM; Activity (Rattus norvegicus [9]): Active; Activity (Rattus norvegicus [10]): Active
Cc1cnn(C)c1CC(=O)NCc1ccc(Cl)cc1Cl | 10 nM | –
CCc1n[nH]c(CC)c1CCC(=O)NCc1ccc(F)cc1Cl | 10 nM | –
Cc1noc(C)c1CC(=O)NCc1ccc(Cl)cc1Cl | 15.8 nM | –
Cc1cn[nH]c1CCC(=O)NCc1ccc(F)cc1Cl | 398 nM | –
Cc1cnn(C)c1CC(=O)NCc1cccc(C(F)(F)F)c1Cl | 3.16 nM | –
Cc1n[nH]c(C)c1CC(=O)NCc1cccc(Cl)c1 | 158 nM | –
Cc1n[nH]c(C)c1CC(=O)NCc1ccc(Cl)cc1 | 631 nM | –
Cc1[nH]nc(C(C)(C)C)c1CCC(=O)NCc1ccc(F)cc1Cl | 158 nM | –
Cc1noc(C)c1CCC(=O)NCc1ccc(F)cc1Cl | 63.1 nM | –
Cc1noc(C)c1CC(=O)NCc1cccc(C(F)(F)F)c1Cl | 2.51 nM | –
Cc1n[nH]c(C)c1CC(=O)NCc1ccc(Cl)c(C(F)(F)F)c1 | 63.1 nM | –
Cc1[nH]nc(C(F)(F)F)c1CCC(=O)NCc1ccc(F)cc1Cl | 12.6 nM | –
Cc1n[nH]c(C)c1CC(=O)NCc1cccc(C(F)(F)F)c1Cl | 2.51 nM | –
Cc1[nH]nc(CC(C)C)c1CCC(=O)NCc1ccc(F)cc1Cl | 100 nM | –
CC(C)c1n[nH]c(C(C)C)c1CCC(=O)NCc1ccc(F)cc1Cl | 126 nM | –
Cc1[nH]nc(-c2ccccc2)c1CCC(=O)NCc1ccc(F)cc1Cl | > 1000 nM | –
Cn1ncc(F)c1CC(=O)NCc1cccc(C(F)(F)F)c1Cl | 10 nM | –
Cc1n[nH]c(C)c1CC(=O)NCc1ccc(F)cc1C(F)(F)F | 39.8 nM | –
Cc1n[nH]c(C)c1CC(=O)NCc1ccccc1Cl | 251 nM | –
Cc1cnn(C)c1CCC(=O)NCc1ccc(F)cc1Cl | 158 nM | –
Cc1n[nH]c(C)c1CC(=O)NCc1ccc(F)cc1F | 158 nM | –
Cc1cc(CCC(=O)NCc2ccc(F)cc2Cl)n(C)n1 | 316 nM | –
